Reference: US5069895A, “Methods for the treatment of alcohol intoxication and dependence” (priority 1989, dated 1991)
Read-outs that look alike come from different tables or passages of the source.

Legend:
[1] = system: mice; details: cited from earlier work; for effect on symptoms of ethanol intoxication: Dar et al. (1985); for intoxicating effect of ethanol: administration over a 10-day period to mice, Dar and Wooles (1986); for ethanol-induced ataxia: pretreated mice, Dar et al. (1987)
[2] = system: NG108-15 cells; assay: acute effect of ethanol on endogenous cAMP levels; type: cell-based
Description: NG108-15 cells were grown in defined media as described (Gordon et al. (1986) supra.) to a final density of 12-20×10^6 cells per flask. […] Bars represent means ±SEM, n=4-9.

[3] = system: S49 wild type cells; assay: agonist stimulation of cAMP levels over basal
Description: (§1) S49 wild type (WT) and adenosine transport mutants (80-2A6 and 160-D4) were grown in defined media (11, without phytohemagglutinin) with 1 U/ml ADA for at least 2 weeks. They were then grown in the presence or absence of 100 mM ethanol with or without 1.5 U/ml ADA for 48 hours. Accumulation of adenosine over 5 min was determined by incubating 1.0×10^7 cells/ml in sterilized PBS in the absence or presence of 200 mM ethanol. Extracellular adenosine concentrations were determined as in FIG. 2. Accumulation of adenosine over 24 hours in the absence or presence of 100 mM ethanol was determined as described by Green (1980) supra.. Assays for receptor-stimulated cAMP levels were carried out as in FIG. 3. […] Values represent means ±SEM. Number of determinations in indicated in parentheses.

[4] = system: C1300 neuroblastoma cells; details: endogenously released, overnight culture; cited from earlier work
[5] = system: S49 wild type cells; assay: receptor-stimulated cAMP levels after chronic ethanol; type: cell-based; details: for activity at 100000 µM: wild type, 100 mM EtOH 48 hr
Description: as §1

[6] = system: S49 adenosine transport mutant 80-2A6
Description: as §1

[7] = system: S49 wild type cells
Description: as §1

[8] = system: S49 adenosine transport mutant 160-D4; assay: cells; details: 48 h
Description: as §1

[9] = system: S49 adenosine transport mutant 80-2A6; assay: cells; details: 48 h
Description: as §1

[10] = system: adenosine transport in freshly isolated lymphocytes; details: lymphocytes from alcoholics vs nonalcoholics, 200 mM ethanol 3 min, uptake at 10 seconds
Description: Uptake of [^3 H]-adenosine in freshly isolated lymphocytes from nonalcoholics and actively drinking alcoholics was also measured.

[11] = system: NG108-15 cells; details: 200 mM ethanol, 10 min
Description: NG108-15 cells (5×10^6 cells/well) were incubated with 2 ml of PBS in the presence or absence of 200 mM ethanol for 10 min. Fluorescent derivatives of adenosine were prepared (Green (1980) supra.) and injected onto a reverse-phase HPLC column equilibrated with 1.2 mM KPO4, pH 5 and eluted with a 0-60% methanol gradient. Peak areas were compared with those of known amounts of 1,N^6 -ethenoadenosine.

[12] = system: cultured lymphocytes; assay: cells; details: for activation at 100000 µM: Homo sapiens, Lymphocyte, 5 min
Description: Lymphocytes from alcoholics and nonalcoholics were grown in culture for 6 days, and 100 mM ethanol was added for 24 hours. The cells were washed, preincubated for 5 minutes in the absence of ethanol, and then incubated in the absence and presence of 100 mM ethanol for 5 minutes. Extracellular adenosine was measured by HPLC (n=5-7 for alcoholics and nonalcoholics).

[13] = read-out: cAMP levels, 1 uM PGE1
[14] = read-out: cAMP levels, 100 uM PIA

**Q.** Which “effect on symptoms of ethanol intoxication” value [1] does the source give for `OCCN(CCO)c1nc(N2CCCCC2)c2nc(N(CCO)CCO)nc(N3CCCCC3)c2n1` [Dipyridamole] here?
**A.** The value was “potentiating effect on certain symptoms of ethanol intoxication”.

**Q.** What does the source list for `CC(C)Cn1c(=O)n(C)c(=O)c2[nH]cnc21` [IBMX, isobutylmethylxanthine]?
**A.** intoxicating effect of ethanol [1]: increased; ethanol-induced ataxia [1]: significant potentiation; effect on ethanol-induced increase in cAMP levels ([2]; co-incubation with ethanol 10 min, 1 U/ml ADA or isobutylmethylxanthine): completely blocked

**Q.** Which maximal fold induction ([3]; Mus musculus, read-out: increase in cAMP levels over basal) does the source give for `CCCCC[C@H](O)/C=C/[C@H]1[C@H](O)CC(=O)[C@@H]1CCCCCCC(=O)O` [PGE1] here?
**A.** Its maximal fold induction is 13.5 ± 3.5.

**Q.** Which “increase in cAMP levels over basal” value ([3]; maximally-effective concentration) does the source give for `C[C@H](Cc1ccccc1)Nc1ncnc2c1ncn2[C@@H]1O[C@H](CO)[C@@H](O)[C@H]1O` [PIA] here?
**A.** Its value is 1.92±0.41 fold.

**Q.** Which “concentration sufficient to desensitize adenosine receptor-dependent cAMP production” value [4] does the source give for `Nc1ncnc2c1ncn2[C@@H]1O[C@H](CO)[C@@H](O)[C@H]1O` [adenosine] here?
**A.** Its value is 10 to 20 nM.

**Q.** With `Cn1c(=O)c2c(ncn2C)n(C)c1=O` [caffeine] as the compound, how does the “intoxicating effect of ethanol” value [1] read?
**A.** Its value is “increased”.

**Q.** What about the ethanol-induced ataxia [1] of the same compound?
**A.** Its ethanol-induced ataxia is “significant potentiation”.

**Q.** Which activity at 100000 µM [5, 13] does the source give for `CCO` [ethanol] here?
**A.** Its activity at 100000 µM is 36 ± 6%.

**Q.** And the activity at 100000 µM [5, 14]?
**A.** The activity at 100000 µM was 65 ± 7%.

**Q.** And the “extracellular adenosine, EtOH” value ([6]; 80-2A6, 5 min, EtOH 200 mM)?
**A.** The value was 0 nM/10^7 cells.

**Q.** What about the “extracellular adenosine, EtOH” value ([6]; 80-2A6, 24 hr, EtOH 100 mM) of the same compound?
**A.** The value was 0 nM/10^7 cells.

**Q.** What about the “extracellular adenosine, EtOH” value ([7]; 5 min, EtOH 200 nM as printed) of the same compound?
**A.** Its value is 17.6 ± 3.6 nM/10^7 cells.

**Q.** What about the “extracellular adenosine, EtOH” value ([7]; 24 hr, EtOH 100 nM as printed) of the same compound?
**A.** The value was 56.7 ± 10.2 nM/10^7 cells.

**Q.** And the activity at 100000 µM [8, 13]?
**A.** Its activity at 100000 µM is 98 ± 7%.

**Q.** And the activity at 100000 µM [8, 14]?
**A.** Its activity at 100000 µM is 94 ± 9%.

**Q.** And the activity at 100000 µM [9, 13]?
**A.** The activity at 100000 µM was 82 ± 7%.

**Q.** What about the activity at 100000 µM [9, 14] of the same compound?
**A.** Its activity at 100000 µM is 115 ± 11%.

**Q.** What about the “inhibition of adenosine uptake” value [10] of the same compound?
**A.** Its value is “less inhibition by ethanol compared to uptake in cells from nonalcoholics”.

**Q.** What about the extracellular adenosine concentration [11] of the same compound?
**A.** Its extracellular adenosine concentration is 37±1.2 nM/5×10^6 cells.

**Q.** What about the activation at 200000 µM ([2]; Homo sapiens, NG108-15, 10 min, 200 mM ethanol, 10 min, no added agonist, read-out: increase in intracellular cAMP concentration) of the same compound?
**A.** The activation at 200000 µM was 60%.

**Q.** And the activation at 100000 µM ([12]; read-out: increase in extracellular adenosine on rechallenge, lymphocytes from alcoholics, after chronic ethanol, rechallenge 100 mM ethanol)?
**A.** Its activation at 100000 µM is 73%.

**Q.** And the activation at 100000 µM ([12]; read-out: increase in extracellular adenosine, lymphocytes from alcoholics, 100 mM ethanol 5 min)?
**A.** The activation at 100000 µM was 37%.

**Q.** What about the activation at 100000 µM ([12]; read-out: increase in extracellular adenosine, lymphocytes from nonalcoholics, 100 mM ethanol 5 min) of the same compound?
**A.** The activation at 100000 µM was 17%.

**Q.** And the “increase in extracellular adenosine on rechallenge” value ([12]; lymphocytes from nonalcoholics, after 100 mM ethanol 24 hours, rechallenge)?
**A.** Its value is “did not increase extracellular adenosine”.

**Q.** Which “desensitization of the adenosine receptor” value ([5]; S49 wild type cells exposed 48 hr, data not shown) does the source give for `OC[C@H]1O[C@@H](n2cnc3c(O)ncnc32)[C@H](O)[C@@H]1O` [inosine, reference compound] here?
**A.** The value was “did not desensitize the adenosine receptor”.

**Q.** With `Cn1c(=O)c2[nH]cnc2n(C)c1=O` [theophylline] as the compound, how does the “effect on symptoms of ethanol intoxication” value [1] read?
**A.** Its value is “ameliorated certain symptoms of intoxication while having no effect on others”.

**Q.** And the “intoxicating effect of ethanol” value [1]?
**A.** The value was “appeared to have no effect”.

**Q.** And the ethanol-induced ataxia [1]?
**A.** Its ethanol-induced ataxia is “significant potentiation”.
